Read-outs that look alike come from different tables or passages of the source.
Columns and labels:
Assay type in all cases: cell-based
[1] = tested on: Escherichia coli (E. coli—ATCC #8739); assay: Synergy test, microtiter plate high resolution MIC assay, bacterium; conditions: E. coli 8739, M9GY medium; for MIC: Escherichia coli, read-out: QB: MIC of second component (B) acting alone
Excerpt: (§1) One skilled in the art will recognize that the sensitivity of other microorganisms to the particular combinations will vary and, as a result, the concentrations, the ratios, for each, or both, of the compounds may vary from those detailed in these examples. The concentrations and ratios may also vary under different test conditions or with different test methods. One measure of synergy is the industrially accepted method described by Kull, […]. and Mayer, R. L., in Applied Microbiology 9:538-541 (1961), using the ratio determined by the formula: Qa/QA+Qb/QB=Synergy Index (“SI”) wherein: • QA=concentration of compound A (first component) in ppm, acting alone, which produced an end point (MIC of Compound A). • Qa=concentration of compound A in ppm, in the mixture, which produced an end point. • QB=concentration of compound B (second component) in ppm, acting alone, which produced an end point (MIC of Compound B). • Qb=concentration of compound B in ppm, in the mixture, which produced an end point. When the sum of Qa/QA and Qb/QB is greater than one, antagonism is indicated. […] The lower the SI, the greater is the synergy shown by that particular mixture. The minimum inhibitory concentration (MIC) of a microbicide is the lowest concentration tested under a specific set of conditions that prevents the growth of the tested microorganisms. Synergy tests were conducted using standard microtiter plate assays with media designed for optimal growth of the test microorganism. Minimal salt medium supplemented with 0.2% glucose and 0.1% yeast extract ([…] medium) was used for testing bacteria; Potato Dextrose Broth (PDB medium) was used for testing yeast and mold. In this method, a wide range of combinations of microbicides and other personal care raw materials was tested by conducting high resolution MIC assays in the presence of various concentrations of MIT, or BIT. […] The synergy of the combinations of the present invention was determined against a bacterium, Escherichia coli (E. coli-ATCC #8739), and/or a yeast, Candida albicans (C. albicans-ATCC 10231), and/or a mold, Aspergillus niger (A. niger-ATCC 16404). The bacteria were used at a concentration of about 5×10^6 bacteria per mL and the yeast and mold at 5×10^5 fungi per mL. These microorganisms are representative of natural contaminants in many consumer and industrial applications. […] (yeast and mold) or 30° C. (bacteria). […] In each test, First Component (A) was MIT and the Second Component (B) was the other microbicide, formulation ingredient, or raw material.

[2] = tested on: Aspergillus niger (A. niger—ATCC 16404); assay: Synergy test, microtiter plate high resolution MIC assay, mold; conditions: for MIC: Aspergillus niger
Excerpt: as §1

[3] = tested on: Candida albicans (C. albicans—ATCC 10231); assay: Synergy test, microtiter plate high resolution MIC assay, yeast; conditions: for MIC: Candida albicans
Excerpt: as §1

[4] = A. niger 16404, PDB medium, 3 days
[5] = ATCC16404, 72 h, A. niger 16404, PDB medium, 3 days, read-out: QB: MIC of second component (B) acting alone
[6] = C. albicans 10231, PDB medium, 2 days
[7] = A. niger 16404, PDB medium, 10 days
[8] = C. albicans 10231, PDB medium, 3 days
[9] = ATCC16404, 240 h, A. niger 16404, PDB medium, 10 days, read-out: QB: MIC of second component (B) acting alone
[10] = C. albicans 10231, PDB medium, 1 day
[11] = ATCC10231, 24 h, C. albicans 10231, PDB medium, 1 day, read-out: QB: MIC of second component (B) acting alone
[12] = ATCC10231, 48 h, C. albicans 10231, PDB medium, 2 days, read-out: QB: MIC of second component (B) acting alone
[13] = A. niger 16404, PDB medium, 6 days

| MIC ([1]; ATCC8739, 24 h, 1 day) [µg/mL] | MIC [3, 12] [µg/mL] | SMILES | SI (Synergy Index, Qa/QA+Qb/QB) ([1]; 1 day) | SI (Synergy Index, Qa/QA+Qb/QB) [2, 4] | SI (Synergy Index, Qa/QA+Qb/QB) [3, 6] | SI (Synergy Index, Qa/QA+Qb/QB) [2, 7] | SI (Synergy Index, Qa/QA+Qb/QB) [3, 8] | SI (Synergy Index, Qa/QA+Qb/QB) [3, 10] | SI (Synergy Index, Qa/QA+Qb/QB) [2, 13] | further results |
| --- | --- | --- | --- | --- | --- | --- | --- | --- | --- | --- |
| 8000 |  | COc1ccc(C(=O)O)cc1 [anisic acid, 4-methoxybenzoic acid] | 1.00 | 1.00 |  |  |  |  |  | MIC [2, 5]: 2000 µg/mL |
| 8000 |  | O=C(O)/C=C\C(=O)O [maleic acid, 2-butenedioic acid] | 1.00 |  | 1.00 |  |  |  |  |  |
|  |  | CC(C(=O)O)N(CC(=O)O)CC(=O)O (stereo not shown) [MDGA, methyl glycine diacetic acid] |  |  |  | 1.00 | 1.00 |  |  |  |
|  |  | O=C(O)CC(NC(CC(=O)O)C(=O)O)C(=O)O (stereo not shown) [IDS, iminodisuccinate] |  | 1.00 | 1.00 |  |  |  |  | QB: MIC of second component (B) acting alone [2, 4]: 5000 ppm |
| 5000 | 2000 | CCC(=O)O [propionic acid, ethanecarboxylic acid] | 1.00 |  | 1.00 | 1.00 |  | 1.00 |  | MIC [2, 9]: 500 µg/mL; MIC [3, 11]: 2000 µg/mL |
|  |  | O=C(O)CN(CCN(CC(=O)O)CC(=O)O)CCN(CC(=O)O)CC(=O)O [DTPA, diethylene triamine pentacetic acid] |  | 1.00 |  |  |  | 1.00 | 1.00 | QB: MIC of second component (B) acting alone [2, 4]: 800 ppm; QB: MIC of second component (B) acting alone [2, 13]: 2000 ppm; QB: MIC of second component (B) acting alone [3, 10]: 2000 ppm |
|  |  | CC(O)COc1ccccc1 (stereo not shown) [phenoxypropanol, propylene glycol phenyl ether] |  | 1.00 |  |  | 1.00 |  |  | MIC [2, 5]: 3000 µg/mL; MIC ([3]; ATCC10231, 72 h, C. albicans 10231, PDB medium, 3 days, read-out: QB: MIC of second component (B) acting alone): 5000 µg/mL |
|  |  | Cn1sccc1=O [MIT, 2-methyl-4-isothiazolin-3-one] |  | 1.00 | 1.00 | 1.00 | 1.00 | 1.00 | 1.00 | QA: MIC of first component (A) acting alone [2, 4]: 200 ppm; MIC ([2]; ATCC16404, 72 h, read-out: QA: MIC of first component (A) acting alone, A. niger 16404, PDB medium, 3 days): 300 µg/mL; MIC ([2]; ATCC16404, 144 h, read-out: QA: MIC of first component (A) acting alone, A. niger 16404, PDB medium, 6 days): 300 µg/mL; MIC ([2]; ATCC16404, 240 h, read-out: QA: MIC of first component (A) acting alone, A. niger 16404, PDB medium, 10 days): 300 µg/mL; MIC ([3]; ATCC10231, 24 h, read-out: QA: MIC of first component (A) acting alone): 200 µg/mL; MIC ([3]; ATCC10231, 48 h, read-out: QA: MIC of first component (A) acting alone): 200 µg/mL; MIC ([3]; ATCC10231, 72 h, read-out: QA: MIC of first component (A) acting alone): 200 µg/mL |
| 5000 | 3000 | O=P(O)(O)O[C@H]1[C@H](OP(=O)(O)O)[C@@H](OP(=O)(O)O)[C@H](OP(=O)(O)O)[C@@H](OP(=O)(O)O)[C@H]1OP(=O)(O)O [phytic acid, inositol hexaphosphoric acid] | 1.00 |  | 1.00 | 1.00 |  |  |  | MIC [2, 9]: 20000 µg/mL |
|  |  | O=c1[nH]sc2ccccc12 [BIT, 1,2-benzisothiazolin-3-one] | 1.00 | 1.00 | 1.00 | 1.00 | 1.00 | 1.00 | 1.00 | QA: MIC of first component (A) acting alone ([1]; 1 day): 15 ppm; QA: MIC of first component (A) acting alone ([1]; 2 days): 15 ppm; SI (Synergy Index, Qa/QA+Qb/QB) ([1]; 2 days): 1.00; QA: MIC of first component (A) acting alone ([1]; 3 days): 15 ppm; SI (Synergy Index, Qa/QA+Qb/QB) ([1]; 3 days): 1.00; QA: MIC of first component (A) acting alone [2, 13]: 20 ppm; QA: MIC of first component (A) acting alone [2, 7]: 20 ppm; QA: MIC of first component (A) acting alone [3, 10]: 20 ppm |
|  | 2000 | CCCCCCCCCC(=O)O [capric acid, decanoic acid] |  |  | 1.00 |  |  |  | 1.00 | SI (Synergy Index, Qa/QA+Qb/QB) ([1]; 3 days): 1.00; MIC ([1]; ATCC8739, 72 h, 3 days): 10000 µg/mL; MIC ([2]; ATCC16404, 144 h, A. niger 16404, PDB medium, 6 days, read-out: QB: MIC of second component (B) acting alone): 5000 µg/mL |
|  | 2000 | CCCCCCCCC(O)CO (stereo not shown) [decylene glycol, 1,2-decanediol] |  | 1.00 | 1.00 |  |  | 1.00 |  | MIC [2, 5]: 2000 µg/mL; MIC [3, 11]: 2000 µg/mL |

Source: patent US8138212B2, “Synergistic microbicidal compositions” (Rohm and Haas Company, priority 2009, dated 2012)
